According to PubChem BioAssay (NCI):
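Five concentrations, 48 hours, 96-well plates. At the TGI there is no net growth.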

System: P388 leukemia
Assay: NCI tumour cell line growth inhibition, 48 h

Structure (SMILES): Nc1ccn([C@@H]2C=C(CO)[C@@H](O)[C@H]2O)c(=O)n1
- TGI: 1840 nM
